One assay addresses T1, mMC1R (Mus musculus, UniProt Q01727).
T1 construct: expressed in transfected cells
Kind of assay: AlphaScreen cAMP assay, agonist activity, HEK293 cells stably expressing mMC1R. The class given is cell-based. To be noted: Table 2; at 100 μM, relative to NDP-MSH. Background: Bead proximity is the source of the signal in Alpha formats.

The target of the next assay is T2, mMC3R (Mus musculus, UniProt P33033).
T2 construct: expressed in transfected cells
Kind of assay: AlphaScreen cAMP assay, agonist activity, HEK293 cells stably expressing mMC3R. The class given is cell-based. To be noted: Table 2; at 100 μM.

The target in assay [1] is T3, mMC4R (Mus musculus, UniProt P56450). Kind of assay: AlphaScreen cAMP assay, agonist activity, HEK293 cells stably expressing mMC4R. The assay is classed as cell-based. To be noted: Table 2; at 100 μM. The arrangement: expressed in transfected cells.
T3 sequence (P56450 whole entry): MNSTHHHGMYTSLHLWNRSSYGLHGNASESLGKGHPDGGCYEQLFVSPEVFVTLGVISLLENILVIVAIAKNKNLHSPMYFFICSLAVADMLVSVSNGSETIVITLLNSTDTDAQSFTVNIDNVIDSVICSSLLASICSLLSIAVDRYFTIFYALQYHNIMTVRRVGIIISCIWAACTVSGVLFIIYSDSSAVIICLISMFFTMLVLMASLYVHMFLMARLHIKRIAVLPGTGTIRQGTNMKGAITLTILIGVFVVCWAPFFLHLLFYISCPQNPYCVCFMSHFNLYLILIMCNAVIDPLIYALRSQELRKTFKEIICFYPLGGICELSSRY
The next assay relates to rats. To be noted: ICV administration into rats; cited from earlier work.
The next assay deals with MC1R (Mus musculus, UniProt Q01727). To be noted: previously reported; read-out: MC1R agonist potency; cited from earlier work.
MC1R, sequence (Q01727 whole entry): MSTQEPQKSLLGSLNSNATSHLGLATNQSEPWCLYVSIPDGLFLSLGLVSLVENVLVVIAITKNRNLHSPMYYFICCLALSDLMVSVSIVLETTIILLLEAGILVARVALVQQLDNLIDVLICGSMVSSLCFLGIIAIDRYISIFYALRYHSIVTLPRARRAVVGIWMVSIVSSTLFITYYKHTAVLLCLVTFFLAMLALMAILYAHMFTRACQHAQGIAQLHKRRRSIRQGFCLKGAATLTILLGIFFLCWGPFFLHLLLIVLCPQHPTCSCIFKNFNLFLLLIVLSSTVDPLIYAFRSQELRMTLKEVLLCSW
In assay [2] the target is T4, MC4R (Homo sapiens, UniProt P32245). Kind of assay: Competitive radioligand binding, displacement of 125I-AGRP, HEK293 cells expressing hMC4R. To be noted: for fold decreased binding affinity compared to AGRP: displacement of 125I-AGRP; for IC50: Table 10. Details: expressed in transfected cells. On the technique in general: Displacement assays read how much labelled ligand stays bound in the presence of the test substance.
T4 sequence (P32245 whole entry): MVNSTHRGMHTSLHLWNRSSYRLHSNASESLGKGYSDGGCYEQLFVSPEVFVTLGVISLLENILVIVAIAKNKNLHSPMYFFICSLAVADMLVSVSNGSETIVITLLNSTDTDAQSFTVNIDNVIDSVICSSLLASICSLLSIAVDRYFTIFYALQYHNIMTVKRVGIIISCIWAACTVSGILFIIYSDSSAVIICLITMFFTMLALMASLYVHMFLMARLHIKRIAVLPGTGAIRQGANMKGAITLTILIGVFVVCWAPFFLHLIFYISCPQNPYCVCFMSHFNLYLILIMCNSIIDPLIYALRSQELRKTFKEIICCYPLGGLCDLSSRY
Description: Competitive binding affinity experiments were performed on HEK-293 cells stably expressing the wildtype hMC4R. […] The assay media was carefully aspirated and cells were washed once with assay buffer. Cell were lysed with 500 μL 0.1 M NaOH and 500 μL 1% Triton X-100 for a minimum of 10 min. […] All experiments were performed with duplicate data points and in at least two independent experimental replicates. […] Concentration-response curves and IC50 values were generated and analyzed by the PRISM program (version 4.0. GraphPad Inc.) by a nonlinear regression method. The standard error of the mean (SEM) was derived from the IC50 values from at least two independent experimental replicates.

The target of the next assay is T5, hMC4R-Kir7.1(M125R) (Homo sapiens, UniProt P32245).
T5 construct: expressed in transfected cells; Kir7.1 tetracycline-induced)
T5 sequence (P32245 whole entry, stated change not applied): as the sequence (P32245 whole entry) above
Kind of assay: Kir7.1 thallium flux assay, HEK293 cells expressing human MC4R and Kir7.1 (M125R). The class given is cell-based. To be noted: for fold selective for Kir7.1 signaling over cAMP antagonism / fold selective for cAMP over Kir7.1 signaling: antagonist Ki / Kir7.1 apparent potency. On the procedure:
In this assay, the Kir7.1 (M125R) variant was used since it previously was reported to result in higher unitary conductance compared to the native channel.^39
The compound with the highest apparent potency.
HEK293 cells stably expressing the human MC4R and Kir7.1 (M125R) were grown in MEM medium with 10% FBS without antibiotics, suspended in medium plus 1 μg ml^−1 tetracycline (to induce expression of the transfected tet-sensitive Kir7.1 gene) and plated (20 μL) in 384-well poly-D-lysine coated optical bottom plates (BD Biosciences) at 20,000 cells per well. Plates were incubated overnight for 16-24 h in the cell incubator at 37° C., 5% CO2. […] Plates were incubated in the dark for 1 h at room temperature and dye solution was removed. Upon addition of 20 μL 1×HBSS buffer, a liquid handler added 20 μL of ligand solution to entire plate simultaneously (ligands were prepared by serial dilution in 1×HBSS, 20 mM HEPES, 0.1% BSA, pH 7.3). Plates were incubated in the dark for 20 min (unless otherwise indicated). After a baseline reading on a Thallos Plate-reader (Vanderbilt, Tenn.), 10 μL of a thallium solution (1×HBSS, 20 mM HEPES, 2 mM Tl, pH 7.3) was loaded and fluorescence generated by thallium influx was recorded for 10 min. The signal was normalized to an untreated control.

Assay [3] has as its target T3, mMC4R. The arrangement: expressed in transfected cells. To be noted: previous SAR study (ref 52); cited from earlier work.
The target of assay [4] is T4, MC4R. Kind of assay: AlphaScreen cAMP assay, inverse agonist activity at hMC4R. The assay is classed as cell-based. The arrangement: expressed in transfected cells. To be noted: for hMC4R Inverse Agonist, decrease from basal signal / EC50: Table 10; for fold decreased inverse agonist apparent potency relative to AGRP: wildtype hMC4R; for EC50: apparent potency, none = no inverse agonist activity.
Description: The apparent potencies were determined from the inflection point of the normalized sigmoidal dose-response curves.
(§1) Briefly, cells 70-90% confluent were dislodged with Versene (Gibco®) at 37° C. and plated 10,000 cells/well in a 384-well plate (Optiplate™) with 10 μL freshly prepared stimulation buffer (1×HBSS, 5 mM HEPES, 0.5 mM IBMX, 0.1% BSA, pH=7.4) with 0.5 μg anti-cAMP acceptor beads per well.
(§2) Following stimulation, streptavidin donor beads (0.5 μg) and biotinylated-cAMP (0.62 μmol) were added to the wells in a subdued light environment with 10 μL lysis buffer (5 mM HEPES, 0.3% Tween-20, 0.1% BSA, pH=7.4) and the plates were incubated in the dark at room temperature for an additional 2 hr.
(§3) The EC50 values represent the mean of duplicate replicates performed in at least three independent experiments. The EC50 estimates and associated standard errors (SEM) were determined by fitting the data to a nonlinear least-squares analysis using the PRISM program (v4.0, GraphPad Inc.). The ligands were assayed as TFA salts and not corrected for peptide context.

In assay [5] the target is T4, MC4R. Kind of assay: Competitive radioligand binding, displacement of 125I-NDP-MSH, HEK293 cells expressing hMC4R. To be noted: for fold decreased binding affinity compared to NDP-MSH: displacement of 125I-NDP-MSH; for IC50: Table 10. Details: expressed in transfected cells.
For assay [6], the target named is T4, MC4R. Kind of assay: AlphaScreen cAMP assay, antagonist activity (Schild, NDP-MSH) at hMC4R. The assay is classed as cell-based. The arrangement: expressed in transfected cells. To be noted: Example 5.
Description: as §1, §2, §3
Another assay deals with free-feeding mice. Kind of assay: Mouse feeding study, intracerebroventricular (ICV) administration. The class given is in vivo.
The next assay deals with T6, mMC5R (Mus musculus, UniProt P41149).
T6 construct: expressed in transfected cells
T6 sequence (P41149 whole entry): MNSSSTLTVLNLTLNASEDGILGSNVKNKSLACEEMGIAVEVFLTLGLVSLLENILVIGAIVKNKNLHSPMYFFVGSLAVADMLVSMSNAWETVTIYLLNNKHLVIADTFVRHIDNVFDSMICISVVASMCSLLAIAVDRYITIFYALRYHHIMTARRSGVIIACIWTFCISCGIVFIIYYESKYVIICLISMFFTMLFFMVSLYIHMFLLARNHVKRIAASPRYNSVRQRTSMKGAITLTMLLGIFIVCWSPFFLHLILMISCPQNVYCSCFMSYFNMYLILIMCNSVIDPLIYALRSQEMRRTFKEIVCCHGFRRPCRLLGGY
Kind of assay: AlphaScreen cAMP assay, agonist and inverse agonist activity, HEK293 cells stably expressing mMC5R. The assay is classed as cell-based. To be noted: Table 6; apparent potency at inflection point.

The test system of another assay is male WT mice. Kind of assay: Mouse feeding study, intrathecal (IT) injection. To be noted: 2 nmol IT. The assay is classed as in vivo. On the procedure: This study was conducted in accordance with the guidelines set up by the Institutional Animal Care and Use Committee (IACUC) at the University of Minnesota. Male Wildtype (WT) mice (mixed 129/Sv×C57BL/6J background) derived from an in house breeding colony were used throughout this experiment as previously reported in literature.^14,23,61,63,65 Each mouse was individually housed in standard polycarbonate conventional cages provided by the University of Minnesota's Research Animal Resources (RAR). Mice were singly housed in order to adequately measure food intake of individual mice during experiments. At the beginning of this experiment, mice were age-matched at 24 weeks old. Research lab staff performed weekly cage changes. […] Mice were monitored daily to assess health.
All mouse feeding experiments were designed following a crossover, non-fasting (nocturnal) paradigm. […] Intrathecal injections were performed as previously described.^63,66-68 Mouse body weight and food weight was recorded in 2, 4, 6, 8, 24, 48 and 72 hours post-injection following a single IT injection. […]
Primary dependent variables were: (i) food intake; and (ii) body weight. Food intake and body weight was analyzed a two-factor within-subject Analysis of Variance (ANOVA) with between session variables of compound and the within-subject variable of time. […]

Consider 16 substances from patent publication US11332499B2, “Cyclic peptides and methods of use thereof” (Regents of the University of Minnesota, priority 2018, dated 2022).

Entries after “also recorded” stand apart in the source; their conditions may differ. Bridge positions count the residues as written; N and C are the ends. Square brackets hold non-standard residues; d marks the D form. Dap = NC[C@H](N)C(=O)O

T1 sequence (Q01727 whole entry): as the sequence (Q01727 whole entry) above
T2 sequence (P33033 whole entry): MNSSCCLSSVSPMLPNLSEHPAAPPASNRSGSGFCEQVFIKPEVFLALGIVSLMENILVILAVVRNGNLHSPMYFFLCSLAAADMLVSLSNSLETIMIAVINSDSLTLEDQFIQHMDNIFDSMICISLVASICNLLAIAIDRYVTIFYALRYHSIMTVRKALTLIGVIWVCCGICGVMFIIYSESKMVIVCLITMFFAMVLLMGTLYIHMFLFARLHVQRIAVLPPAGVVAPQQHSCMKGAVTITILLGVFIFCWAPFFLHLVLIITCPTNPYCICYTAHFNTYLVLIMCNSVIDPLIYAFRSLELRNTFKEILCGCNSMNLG
Description for free-feeding mice: Cannulation surgeries were performed to place a cannula into the lateral cerebral ventricle as previously reported.^23,67,76 Mice were anesthetized with a mixture of xylazine (5 mg/kg) and ketamine (100 mg/kg) administered intraperitoneal (IP) and placed in a stereotaxic apparatus (David Kopf Instruments) that was used to guide the cannula placement. […] After surgery, flunixin meglumine (FluMegluine, Clipper Distribution Company) and 0.5 mL of 0.9% saline (Hospira, Lake Forrest, Ill.) was administered subcutaneously to aid in recovery. Mice recovered for at least 7 days prior to cannula placement validation. Mice were housed individually after surgery and for the remainder of the experiments.
Cannula placement was validated by the feeding response after ICV administration of 2.5 μg of human (h)PYY3-36 (cat # H8585; Bachem), as described previously.^23,67,75-76 Mice received saline treatment and hPYY treatment on different days separated by a washout period of at least 3 days in a crossover design nocturnal feeding paradigm. In this paradigm, compound or saline is administered 2 h prior to lights out (t=0 h) and body weight and food are measured. Mice have free access to food and water. At 4 h post-administration, food is measured. A mouse with a validated properly placed cannula consumed at least 0.8 g more food after hPYY administration compared to saline administration at 4 h.
All ICV and IT administration experiments utilized a crossover design with free access to standard chow. Mice were housed in RAR supplied conventional mouse cages. […] Matching vehicle controls (3% v/v DMSO in saline and 20% solutol) were prepared in parallel. The day of compound administration, an aliquot of stock solution was diluted with saline to the desired experimental dose in 3 μL, in parallel with vehicle control. For ICV administration, the desired experimental dose (3 μL) or vehicle control (3 μL) was delivered 2 h before lights out (t=0 h). For IT administration, the desired experimental dose (5 μL) or vehicle control (5 μL) was delivered 2 h before lights out (t=0 h). Food intake and mouse weight was manually measured at t=0, 2, 4, 6, 8, 24, 48, and 72 h post-injection. Mice recovered 6-7 days between treatments to reestablish pretreatment body weight and feeding patterns.

For the substance “15 (cyclo(PRFFWAF[dP]); SMILES C[C@@H]1NC(=O)[C@H](Cc2c[nH]c3ccccc23)NC(=O)[C@H](Cc2ccccc2)NC(=O)[C@H](Cc2ccccc2)NC(=O)[C@H](CCCNC(=N)N)NC(=O)[C@@H]2CCCN2C(=O)[C@H]2CCCN2C(=O)[C@H](Cc2ccccc2)NC1=O) [Peptide 15]”, the “mMC1R percent maximal stimulatory response” value with mMC1R is given as 80% @ 100 μM. For the same substance, the “mMC3R percent maximal stimulatory response” value with mMC3R was 40% @. Moreover, the “mMC4R percent maximal stimulatory response” value with mMC4R [1] is 50% @.

Regarding “AGRP(83-132): hypothesized biologically active form of agouti-related protein (SSRRCVRLHESCLGQQVPCCDPCATCYCRFFNAFCYCRKLGTAMNPCSRT; UniProt O00253 83-132, looked up, fragment)”, the “increase of 24 h food intake above saline” value in the assay on rats was 77%.

With “H-Tyr-c[Dap-Arg-Phe-Phe-Asn-Ala-Phe-Asp]-Tyr-NH2 (H-Y[Dap]RFFNAFDY-NH2; lactam 2-9)”, in the assay with MC1R, the EC50 was 28100 nM.

On to “c[Pro-Arg-Phe-Phe-Abu-Ala-Phe-DPro] [Peptide 4 (Example 1)]”, for which the “fold decreased binding affinity compared to AGRP” value at MC4R [2] worked out at 16 fold. Also, on hMC4R-Kir7.1(M125R), the “fold decreased thallium flux apparent potency compared to MDE3-119-10c” value worked out at 5 fold and the “fold selective for Kir7.1 signaling over cAMP antagonism” value is “approximately 50 fold”. The “fold decreased antagonist potency compared to the Dap substitution at the mMC4R” value at mMC4R [3] is on record as 25 fold. Moreover, at MC4R [4], the “hMC4R Inverse Agonist, decrease from basal signal” value (shortened to “hMC4R Inverse Agonist, decrease”) is reported as “(-15%)” and the “fold decreased inverse agonist apparent potency relative to AGRP” value is given as 9 fold. At MC4R [5], the “fold decreased binding affinity compared to NDP-MSH” value is given as 20 fold. At MC4R [6], the “fold decreased antagonist potency relative to MDE3-119-8c at the hMC4R” value is given as 19 fold. Also, the “food intake after ICV administration” value in the assay with free-feeding mice (5 nmol dose) is recorded as “observed to decrease food intake, a trend that did not achieve statistical significance”. Also, in the assay on free-feeding mice (2 and 5 nmol doses), the “food intake after ICV administration” value is recorded as “no significant food increase was observed by 8 h”.

For “c[Pro-Arg-Phe-Phe-Ala-Ala-Phe-DPro] [Peptide 3 (Example 1)]”, the “hMC4R Inverse Agonist, decrease” value at MC4R [4] was “(-35%)”.

Consider “c[Pro-Arg-Phe-Phe-Asn-Ala-Cha-DPro] [Compound 10 (Example 3)]”, for which the EC50 on mMC5R stood at 780 nM.

As for “c[Pro-Arg-Phe-Phe-Asn-Ala-Nle-DPro] [Compound 7 (Example 3)]”, the “mouse body weight vs vehicle control” value in the assay on male WT mice is “treated animals weighing more than control animals”. Besides, the “cumulative food intake vs vehicle” value with male WT mice (single injection, listed as KAF2039-7) was “statistically significant increase in food intake at 2 and 6 hours post-injection; also recorded: prolonged trend of increased food intake up to 72 hours post-injection”.

As for “c[Pro-Arg-Phe-Phe-Asn-Ala-Phe-DPro] [Peptide 1 (Example 1)]”, the “hMC4R Inverse Agonist, decrease” value on MC4R [4] is “(-30%)”.

As to “c[Pro-Arg-Phe-Phe-Asn-Ala-Trp-DPro] [Compound 8 (Example 3)]”, the EC50 at mMC5R came out at 150 nM.

On to “c[Pro-Arg-Phe-Phe-Asn-Ala-hPhe-DPro] [Compound 11 (Example 3)]”, for which the EC50 on mMC5R is 290 nM.

Broadly, the IC50 is the concentration that inhibits the measured activity by half. Low readings indicate greater potency, high ones weaker potency. With “c[Pro-Arg-Phe-Phe-Asp-Ala-Phe-DPro] [Peptide 7 (Example 1)]”, at MC4R [2], the IC50 stood at 1300 nM and the “fold decreased binding affinity compared to AGRP” value is listed as 100 fold. Also, on hMC4R-Kir7.1(M125R), the “fold decreased thallium flux apparent potency compared to MDE3-119-10c” value was 2 fold and the “fold selective for Kir7.1 signaling over cAMP antagonism” value is recorded as “over 500 fold”. Further, on MC4R [4], the “hMC4R Inverse Agonist, decrease” value was “(-35%)”; the EC50 is 2000 nM; the “fold decreased inverse agonist apparent potency relative to AGRP” value came out at 830 fold. For the same substance, at MC4R [5], the IC50 came out at 3600 nM and the “fold decreased binding affinity compared to NDP-MSH” value was 130 fold. Further, on MC4R [6], the “fold decreased antagonist potency relative to MDE3-119-8c at the hMC4R” value came to 90 fold.

For the substance “c[Pro-Arg-Phe-Phe-DDap-Ala-Phe-DPro] [Peptide 9 (Example 1)]”, at hMC4R-Kir7.1(M125R), the “fold decreased thallium flux apparent potency compared to MDE3-119-10c” value was 80 fold and the “fold selective for cAMP over Kir7.1 signaling” value is given as 4 fold. Further, the “hMC4R Inverse Agonist, decrease” value on MC4R [4] is recorded as “(-30%)”.

Turning to “c[Pro-Arg-Phe-Phe-Dap-Ala-Phe-DPro] [Peptide 2 (Example 1)]”, on hMC4R-Kir7.1(M125R), the “fold decreased thallium flux apparent potency compared to MDE3-119-10c” value amounted to 28 fold and the “fold selective for cAMP over Kir7.1 signaling” value came to 2 fold. Moreover, the “hMC4R Inverse Agonist, decrease” value on MC4R [4] is “(-50%)”. The “food intake after ICV administration vs vehicle” value in the assay with free-feeding mice (3 nmol dose) is “significant increase in food intake at 4, 6, and 8 h”. Moreover, the “food intake after ICV administration” value with free-feeding mice (free feeding male mice, doses up to 3 nmol, listed as MDE3-119-8c) is on record as “dose-dependent increase in food intake was observed for the first 8 h post-injection; also recorded: did not significantly alter cumulative food intake after 24 h”.

Turning to “c[Pro-Arg-Phe-Phe-Glu-Ala-Phe-DPro] [Peptide 8 (Example 1)]”, on MC4R [2], the IC50 came out at 1400 nM and the “fold decreased binding affinity compared to AGRP” value is listed as 110 fold. On MC4R [4], the “hMC4R Inverse Agonist, decrease” value is on record as “(-35%)”; the EC50 worked out at 1100 nM; the “fold decreased inverse agonist apparent potency relative to AGRP” value stood at 450 fold. For the same substance, on MC4R [5], the IC50 was 2500 nM and the “fold decreased binding affinity compared to NDP-MSH” value is given as 90 fold. Also, on MC4R [6], the “fold decreased antagonist potency relative to MDE3-119-8c at the hMC4R” value was 70 fold.

With “c[Pro-Arg-Phe-Phe-His-Ala-Phe-DPro] [Peptide 10 (Example 1)]”, the “fold decreased binding affinity compared to AGRP” value at MC4R [2] is 4 fold. Moreover, the “hMC4R Inverse Agonist, decrease” value on MC4R [4] is recorded as “(-30%)”. The “fold decreased binding affinity compared to NDP-MSH” value at MC4R [5] is 5 fold.

For “c[Pro-Arg-Phe-Phe-Ser-Ala-Phe-DPro] [Peptide 5 (Example 1)]”, on MC4R [4], the “hMC4R Inverse Agonist, decrease” value is listed as “(-25%)” and the EC50 worked out at 16 ± 4 nM.
